What was measured:
Rattus norvegicus [1] = species on record: Rattus norvegicus; assay: Antiovulatory potency at 5 ug/rat expressed as rats ovulating by total no. of rats (3/4); assay type: functional
[2] = molecular target: T1, Gonadotropin-releasing hormone receptor (Rattus norvegicus, UniProt P30969); assay: Affinity for rat gonadotrophin releasing hormone (GnRH) receptor using HEK293 cells transfected with rat Gonadotropin-releasing hormone receptor; assay type: cell-based; details: hek293
T1 sequence (P30969 whole entry): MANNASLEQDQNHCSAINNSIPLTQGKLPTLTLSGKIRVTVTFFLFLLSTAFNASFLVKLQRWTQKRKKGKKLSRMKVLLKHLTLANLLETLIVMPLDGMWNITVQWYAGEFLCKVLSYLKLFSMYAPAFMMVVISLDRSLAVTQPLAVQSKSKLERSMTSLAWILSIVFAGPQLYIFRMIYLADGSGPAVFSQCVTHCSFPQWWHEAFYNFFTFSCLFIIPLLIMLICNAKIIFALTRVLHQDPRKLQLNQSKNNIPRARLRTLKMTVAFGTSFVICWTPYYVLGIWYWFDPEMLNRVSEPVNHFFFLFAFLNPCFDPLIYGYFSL

Rattus norvegicus [3] = species on record: Rattus norvegicus; assay: Antiovulatory potency at 25 ug/rat expressed as rats ovulating by total no. of rats (1/5); assay type: functional
Rattus norvegicus [4] = species on record: Rattus norvegicus; assay: Antiovulatory potency at 10 ug/rat expressed as rats ovulating by total no. of rats (4/8); assay type: functional
Rattus norvegicus [5] = species on record: Rattus norvegicus; assay: Antiovulatory potency at 250 ug/rat expressed as rats ovulating by total no. of rats (7/7); assay type: functional
Rattus norvegicus [6] = species on record: Rattus norvegicus; assay: Antiovulatory potency at 50 ug/rat expressed as rats ovulating by total no. of rats (0/5); assay type: functional
Rattus norvegicus [7] = species on record: Rattus norvegicus; assay: Antiovulatory potency at 1000 ug/rat expressed as rats ovulating by total no. of rats (3/3); assay type: functional
Rattus norvegicus [8] = species on record: Rattus norvegicus; assay: Antiovulatory potency at 10 ug/rat expressed as rats ovulating by total no. of rats (5/5); assay type: functional
Rattus norvegicus [9] = species on record: Rattus norvegicus; assay: Antiovulatory potency at 10 ug/rat expressed as rats ovulating by total no. of rats (2/7); assay type: functional
Rattus norvegicus [10] = species on record: Rattus norvegicus; assay: Antiovulatory potency at 5 ug/rat expressed as rats ovulating by total no. of rats (3/3); assay type: functional
Rattus norvegicus [11] = species on record: Rattus norvegicus; assay: Antiovulatory potency at 500 ug/rat expressed as rats ovulating by total no. of rats (6/6); assay type: functional
Rattus norvegicus [12] = species on record: Rattus norvegicus; assay: Antiovulatory potency at 10 ug/rat expressed as rats ovulating by total no. of rats (2/8); assay type: functional
Rattus norvegicus [13] = species on record: Rattus norvegicus; assay: Antiovulatory potency at 25 ug/rat expressed as rats ovulating by total no. of rats (0/3); assay type: functional
Rattus norvegicus [14] = species on record: Rattus norvegicus; assay: Antiovulatory potency at 100 ug/rat expressed as rats ovulating by total no. of rats (14/14); assay type: functional
Rattus norvegicus [15] = species on record: Rattus norvegicus; assay: Antiovulatory potency at 250 ug/rat expressed as rats ovulating by total no. of rats (0/4); assay type: functional
[16] = molecular target: T1, Gonadotropin-releasing hormone receptor; assay: Affinity for rat Gonadotropin-releasing hormone receptor membrane evaluated using HEK293 cells transfected with rat Gonadotropin-releasing hormone receptor; assay type: cell-based
Rattus norvegicus [17] = species on record: Rattus norvegicus; assay: Antiovulatory potency at 100 ug/rat expressed as rats ovulating by total no. of rats (4/7); assay type: functional
Rattus norvegicus [18] = species on record: Rattus norvegicus; assay: Antiovulatory potency at 250 ug/rat expressed as rats ovulating by total no. of rats (4/4); assay type: functional
Rattus norvegicus [19] = species on record: Rattus norvegicus; assay: Antiovulatory potency at 100 ug/rat expressed as rats ovulating by total no. of rats (1/8); assay type: functional
Rattus norvegicus [20] = species on record: Rattus norvegicus; assay: Antiovulatory potency at 250 ug/rat expressed as rats ovulating by total no. of rats (0/5); assay type: functional
Rattus norvegicus [21] = species on record: Rattus norvegicus; assay: Antiovulatory potency at 500 ug/rat expressed as rats ovulating by total no. of rats (4/10); assay type: functional
Rattus norvegicus [22] = species on record: Rattus norvegicus; assay: Antiovulatory potency at 50 ug/rat expressed as rats ovulating by total no. of rats (1/8); assay type: functional
Rattus norvegicus [23] = species on record: Rattus norvegicus; assay: Antiovulatory potency at 100 ug/rat expressed as rats ovulating by total no. of rats (0/8); assay type: functional
Rattus norvegicus [24] = species on record: Rattus norvegicus; assay: Antiovulatory potency at 25 ug/rat expressed as rats ovulating by total no. of rats (5/5); assay type: functional
Rattus norvegicus [25] = species on record: Rattus norvegicus; assay: Antiovulatory potency at 250 ug/rat expressed as rats ovulating by total no. of rats (1/5); assay type: functional
Rattus norvegicus [26] = species on record: Rattus norvegicus; assay: Antiovulatory potency at 500 ug/rat expressed as rats ovulating by total no. of rats (5/9); assay type: functional
Rattus norvegicus [27] = species on record: Rattus norvegicus; assay: Antiovulatory potency at 1000 ug/rat expressed as rats ovulating by total no. of rats (5/5); assay type: functional
Rattus norvegicus [28] = species on record: Rattus norvegicus; assay: Antiovulatory potency at 50 ug/rat expressed as rats ovulating by total no. of rats (4/8); assay type: functional
Rattus norvegicus [29] = species on record: Rattus norvegicus; assay: Antiovulatory potency at 25 ug/rat expressed as rats ovulating by total no. of rats (4/4); assay type: functional

CC(=O)N[C@@H]1CCC(=O)NCCC(=O)NC[C@H]2NC(=O)[C@@H](CC(=O)NC[C@H](C(N)=O)NC(=O)[C@H]3CCCN3C(=O)[C@H](CCCN=C(N)N)NC(=O)[C@@H](CC(C)C)NC(=O)[C@@H](Cc3ccc4ccccc4c3)NC2=O)NC(=O)[C@@H](Cc2c[nH]c3ccccc23)NC(=O)[C@H](Cc2ccc(Cl)cc2)NC1=O showed an Ovulating rats (Rattus norvegicus [1]) of 3, a Ki [2] of 0.76 nM and an Ovulating rats (Rattus norvegicus [3]) of 1. The Ovulating rats (Rattus norvegicus [4]) was 4.
CC(=O)N[C@H]1CCC(=O)NCCCC[C@@H]2NC(=O)[C@H](CC(C)C)NC(=O)[C@@H](Cc3ccc4ccccc4c3)NC(=O)[C@H](CCCN=C(N)N)NC(=O)[C@H](CC(=O)NC[C@H](C(N)=O)NC(=O)[C@@H]3CCCN3C2=O)NC(=O)[C@@H](Cc2cccnc2)NC(=O)[C@H](Cc2ccc(Cl)cc2)NC1=O was tested, and the Ovulating rats (Rattus norvegicus [5]) was 7, the Ki [2] was 1.1 nM and the Ovulating rats (Rattus norvegicus [6]) was 0.
In the case of CC(=O)N[C@H](Cc1ccc2ccccc2c1)C(=O)N[C@H](Cc1ccc(Cl)cc1)C(=O)N[C@@H]1CCC(=O)NCCCC[C@@H](C(=O)N2CCC[C@H]2C(=O)N[C@H](C)C(N)=O)NC(=O)[C@H](CC(C)C)NC(=O)[C@@H](Cc2ccc3ccccc3c2)NC(=O)[C@H](CCCN=C(N)N)NC(=O)[C@H](C)NC1=O, the Ovulating rats (Rattus norvegicus [7]) is reported as 3.
In the case of CC(=O)N[C@@H]1CCC(=O)N[C@@H](C)C(=O)NCC[C@H]2NC(=O)[C@@H](CC(=O)NC[C@H](C(N)=O)NC(=O)[C@H]3CCCN3C(=O)[C@H](CCCN=C(N)N)NC(=O)[C@@H](CC(C)C)NC(=O)[C@@H](Cc3ccc4ccccc4c3)NC2=O)NC(=O)[C@@H](Cc2c[nH]c3ccccc23)NC(=O)[C@H](Cc2ccc(Cl)cc2)NC1=O, the Ovulating rats (Rattus norvegicus [8]) is reported as 5 and the Ki [2] is reported as 1.6 nM.
CC(=O)N[C@@H]1CCC(=O)NCC(=O)NC[C@H]2NC(=O)[C@@H](CC(=O)NC[C@H](C(N)=O)NC(=O)[C@H]3CCCN3C(=O)[C@H](CCCN=C(N)N)NC(=O)[C@@H](CC(C)C)NC(=O)[C@@H](Cc3ccc4ccccc4c3)NC2=O)NC(=O)[C@@H](Cc2c[nH]c3ccccc23)NC(=O)[C@H](Cc2ccc(Cl)cc2)NC1=O gave a Ki [2] of 0.44 nM, an Ovulating rats (Rattus norvegicus [9]) of 2 and an Ovulating rats (Rattus norvegicus [10]) of 3.
With CC(=O)N[C@H]1CSSC[C@@H]2NC(=O)[C@@H](CC(=O)NC[C@H](C(N)=O)NC(=O)[C@H]3CCCN3C(=O)[C@H](CCCN=C(N)N)NC(=O)[C@@H](CC(C)C)NC(=O)[C@H](CCCN=C(N)N)NC2=O)NC(=O)[C@@H](Cc2c[nH]c3ccccc23)NC(=O)[C@H](Cc2ccc(Cl)cc2)NC1=O the Ovulating rats (Rattus norvegicus [11]) was 6 and the Ki [2] was 89 nM.
For CC(=O)N[C@@H]1CC(=O)NCC(=O)NC[C@H]2NC(=O)[C@@H](CC(=O)NC[C@H](C(N)=O)NC(=O)[C@H]3CCCN3C(=O)[C@H](CCCN=C(N)N)NC(=O)[C@@H](CC(C)C)NC(=O)[C@@H](Cc3ccc4ccccc4c3)NC2=O)NC(=O)[C@@H](Cc2c[nH]c3ccccc23)NC(=O)[C@H](Cc2ccc(Cl)cc2)NC1=O, the Ovulating rats (Rattus norvegicus [12]) was 2, the Ovulating rats (Rattus norvegicus [13]) was 0 and the Ki [2] was 0.49 nM.
CC(=O)N[C@H](Cc1ccc2ccccc2c1)C(=O)N[C@H](Cc1ccc(Cl)cc1)C(=O)N[C@@H]1CC(=O)NCC[C@@H](C(=O)N2CCC[C@H]2C(=O)N[C@H](C)C(N)=O)NC(=O)[C@H](CC(C)C)NC(=O)[C@@H](Cc2ccc3ccccc3c2)NC(=O)[C@H](CCCN=C(N)N)NC(=O)[C@H](C)NC1=O gave an Ovulating rats (Rattus norvegicus [14]) of 14 and an Ovulating rats (Rattus norvegicus [15]) of 0.
For CC(=O)N[C@H]1CCC(=O)NCC(=O)NCC[C@H]2NC(=O)[C@H](CC(=O)NC[C@@H](C(N)=O)NC(=O)[C@@H]3CCCN3C(=O)[C@H](CCCNC(=N)N)NC(=O)[C@H](CC(C)C)NC(=O)[C@@H](Cc3ccc4ccccc4c3)NC2=O)NC(=O)[C@@H](Cc2c[nH]c3ccccc23)NC(=O)[C@@H](Cc2ccc(Cl)cc2)NC1=O, the Ki [16] was 2.9 nM.
CC(=O)N[C@H](Cc1ccc2ccccc2c1)C(=O)N[C@H](Cc1ccc(Cl)cc1)C(=O)N[C@@H]1CC(=O)NCCCC[C@@H]2NC(=O)[C@H](CC(C)C)NC(=O)[C@@H](Cc3ccc4ccccc4c3)NC(=O)[C@H](CCCN=C(N)N)NC(=O)[C@H](CC(=O)NC[C@@H](C(N)=O)NC(=O)[C@@H]3CCCN3C2=O)NC1=O showed an Ovulating rats (Rattus norvegicus [17]) of 4 and an Ovulating rats (Rattus norvegicus [18]) of 4.
Work on CC(=O)N[C@H](Cc1ccc2ccccc2c1)C(=O)N[C@@H]1CCC(=O)NCCCC[C@@H](C(=O)N2CCC[C@H]2C(=O)N[C@H](C)C(N)=O)NC(=O)[C@H](CC(C)C)NC(=O)[C@@H](Cc2ccc3ccccc3c2)NC(=O)[C@H](CCCN=C(N)N)NC(=O)[C@H](C)NC(=O)[C@@H](Cc2cccnc2)NC1=O yielded an Ovulating rats (Rattus norvegicus [7]) of 3.
Work on CC(=O)N[C@@H]1CCC(=O)NCC[C@H]2NC(=O)[C@@H](CC(=O)NC[C@H](C(N)=O)NC(=O)[C@H]3CCCN3C(=O)[C@H](CCCN=C(N)N)NC(=O)[C@@H](CC(C)C)NC(=O)[C@@H](Cc3ccc4ccccc4c3)NC2=O)NC(=O)[C@@H](Cc2c[nH]c3ccccc23)NC(=O)[C@H](Cc2ccc(Cl)cc2)NC1=O yielded a Ki [2] of 1.7 nM, an Ovulating rats (Rattus norvegicus [19]) of 1 and an Ovulating rats (Rattus norvegicus [20]) of 0.
CC(=O)N[C@H]1CSSC[C@H]2NC(=O)[C@@H](CC(=O)NC[C@H](C(N)=O)NC(=O)[C@H]3CCCN3C(=O)[C@H](CCCN=C(N)N)NC(=O)[C@@H](CC(C)C)NC(=O)[C@@H](Cc3ccc4ccccc4c3)NC2=O)NC(=O)[C@@H](Cc2c[nH]c3ccccc23)NC(=O)[C@H](Cc2ccc(Cl)cc2)NC1=O gave a Ki [2] of 0.25 nM and an Ovulating rats (Rattus norvegicus [21]) of 4.
With CC(=O)N[C@@H]1CCC(=O)NCC(=O)NCC[C@@H]2NC(=O)[C@@H](CC(=O)NC[C@H](C(N)=O)NC(=O)[C@H]3CCCN3C(=O)[C@H](CCCN=C(N)N)NC(=O)[C@@H](CC(C)C)NC(=O)[C@@H](Cc3ccc4ccccc4c3)NC2=O)NC(=O)[C@@H](Cc2c[nH]c3ccccc23)NC(=O)[C@H](Cc2ccc(Cl)cc2)NC1=O the Ovulating rats (Rattus norvegicus [22]) was 1, the Ovulating rats (Rattus norvegicus [23]) was 0 and the Ovulating rats (Rattus norvegicus [24]) was 5.
CC(=O)N[C@@H]1CC(=O)NC[C@@H]2NC(=O)[C@@H](CC(=O)NC[C@H](C(N)=O)NC(=O)[C@H]3CCCN3C(=O)[C@H](CCCN=C(N)N)NC(=O)[C@@H](CC(C)C)NC(=O)[C@@H](Cc3ccc4ccccc4c3)NC2=O)NC(=O)[C@@H](Cc2c[nH]c3ccccc23)NC(=O)[C@H](Cc2ccc(Cl)cc2)NC1=O was tested, and the Ovulating rats (Rattus norvegicus [25]) was 1, the Ki [2] was 4.8 nM and the Ovulating rats (Rattus norvegicus [26]) was 5.
CC(C)C[C@@H]1NC(=O)[C@@H](Cc2ccc3ccccc3c2)NC(=O)[C@H](CCCN=C(N)N)NC(=O)[C@H](C)NC(=O)[C@@H](Cc2cccnc2)NC(=O)[C@@H](Cc2ccc(Cl)cc2)NC(=O)[C@@H](Cc2ccc3ccccc3c2)NC(=O)CCC(=O)NCCCC[C@@H](C(=O)N2CCC[C@H]2C(=O)N[C@H](C)C(N)=O)NC1=O showed an Ovulating rats (Rattus norvegicus [27]) of 5.
Molecule CC(=O)N[C@H]1CC(=O)NCC(=O)NCC[C@H]2NC(=O)[C@H](CC(=O)NC[C@@H](C(N)=O)NC(=O)[C@@H]3CCCN3C(=O)[C@H](CCCN=C(N)N)NC(=O)[C@H](CC(C)C)NC(=O)[C@@H](Cc3ccc4ccccc4c3)NC2=O)NC(=O)[C@@H](Cc2c[nH]c3ccccc23)NC(=O)[C@@H](Cc2ccc(Cl)cc2)NC1=O has an Ovulating rats (Rattus norvegicus [23]) of 0, an Ovulating rats (Rattus norvegicus [28]) of 4 and an Ovulating rats (Rattus norvegicus [29]) of 4.
